Measured values reported in patent US11235976B2, “Nanocarbon-iron composite system as well as composition, preparation method and use thereof” (Chongqing Lummy Pharmaceutical Co., LTD, priority 2017, dated 2022).

Experiments:
Assay in all cases: Cell experiment, cell survival rate
Format in all cases: cell-based
Conditions in all cases: 48 h
A549 lung cancer cells = system: A549 lung cancer cells
Description: (§1) Cells growing in a log phase are collected, the concentration of the cell suspension is adjusted, 100 μL of cell suspension is added to each well and the cells are plated (edge wells are filled with sterile PBS) at a density of 1×10^3-10^4 cells/well. The cells are incubated for 24 hours at 37° C. under the condition of 5% CO2, a nanocarbon-iron solution having a concentration gradient (nanocarbon content: 125, 62.5, 15.63 and 3.91 μg/mL; and ferric ion content: 13.65, 6.83, 1.71 and 0.43 μg/mL) is added, and three sub-wells are set. Then the cells are incubated for 48 hours at 37° C. under the condition of 5% CO2. 10 μL of CCK8 solution is added to each well and then the cells are continuously incubated for 2 hours. The absorbance of each well is measured at OD=450 nm with the microplate reader. In addition, a negative control group, nanocarbon control groups having the same concentration and iron preparation control groups having the same concentration are set.
as §1, with “and 1” for “100”, “of a 6-well plate” for “and the cells are plated (edge wells are filled with sterile PBS)”, “3×10^4” for “1×10^3-10^4”, “1.71,” for “1.71 and”, “The” for “10 μL of CCK8 solution is added to each well and then the”, “trypsinized and counted.” for “continuously incubated for 2 hours. The absorbance of each well is measured at OD=450 nm with the microplate reader.”

[1] = system: SKOV3 ovarian cancer cells
Description: as §1
as §1, with “and 1” for “100”, “of a 6-well plate” for “and the cells are plated (edge wells are filled with sterile PBS)”, “3×10^4” for “1×10^3-10^4”, “1.71,” for “1.71 and”, “The” for “10 μL of CCK8 solution is added to each well and then the”, “trypsinized and counted.” for “continuously incubated for 2 hours. The absorbance of each well is measured at OD=450 nm with the microplate reader.”

[2] = system: MDA-MB-231 breast cancer cells
Description: as §1
as §1, with “and 1” for “100”, “of a 6-well plate” for “and the cells are plated (edge wells are filled with sterile PBS)”, “3×10^4” for “1×10^3-10^4”, “1.71,” for “1.71 and”, “The” for “10 μL of CCK8 solution is added to each well and then the”, “trypsinized and counted.” for “continuously incubated for 2 hours. The absorbance of each well is measured at OD=450 nm with the microplate reader.”

[3] = system: HCT116 colon cancer cells
Description: as §1
as §1, with “and 1” for “100”, “of a 6-well plate” for “and the cells are plated (edge wells are filled with sterile PBS)”, “3×10^4” for “1×10^3-10^4”, “1.71,” for “1.71 and”, “The” for “10 μL of CCK8 solution is added to each well and then the”, “trypsinized and counted.” for “continuously incubated for 2 hours. The absorbance of each well is measured at OD=450 nm with the microplate reader.”

[4] = system: Hela cervical cancer cells
Description: as §1
as §1, with “and 1” for “100”, “of a 6-well plate” for “and the cells are plated (edge wells are filled with sterile PBS)”, “3×10^4” for “1×10^3-10^4”, “1.71,” for “1.71 and”, “The” for “10 μL of CCK8 solution is added to each well and then the”, “trypsinized and counted.” for “continuously incubated for 2 hours. The absorbance of each well is measured at OD=450 nm with the microplate reader.”

[5] = system: SGC-7901 stomach cancer cells
Description: as §1
as §1, with “and 1” for “100”, “of a 6-well plate” for “and the cells are plated (edge wells are filled with sterile PBS)”, “3×10^4” for “1×10^3-10^4”, “1.71,” for “1.71 and”, “The” for “10 μL of CCK8 solution is added to each well and then the”, “trypsinized and counted.” for “continuously incubated for 2 hours. The absorbance of each well is measured at OD=450 nm with the microplate reader.”

[6] = iron preparation alone 0.43 μg/mL
[7] = iron preparation alone 1.71 μg/mL
[8] = iron preparation alone 6.83 μg/mL
[9] = iron preparation alone 13.65 μg/mL

ferrous sulfate was tested, and the “Cell Survival Rate” value (A549 lung cancer cells; [6]) was 100%, the “Cell Survival Rate” value (A549 lung cancer cells; [7]) was 94.18% and the “Cell Survival Rate” value (A549 lung cancer cells; [8]) was 95.12%. The “Cell Survival Rate” value (A549 lung cancer cells; [9]) was 100%, the “Cell Survival Rate” value [1, 6] was 97.89% and the “Cell Survival Rate” value [1, 7] was 100%. For the same substance, the “Cell Survival Rate” value [1, 8] was 95.78%, the “Cell Survival Rate” value [1, 9] was 96.47% and the “Cell Survival Rate” value [2, 6] was 100%. For the same substance, the “Cell Survival Rate” value [2, 7] was 100%, the “Cell Survival Rate” value [2, 8] was 100% and the “Cell Survival Rate” value [2, 9] was 100%. For the same substance, the “Cell Survival Rate” value [3, 6] was 98.32%, the “Cell Survival Rate” value [3, 7] was 100% and the “Cell Survival Rate” value [3, 8] was 97.68%. The “Cell Survival Rate” value [3, 9] was 94.07%, the “Cell Survival Rate” value [4, 6] was 100% and the “Cell Survival Rate” value [4, 7] was 100%. The “Cell Survival Rate” value [4, 8] was 100%, the “Cell Survival Rate” value [4, 9] was 93.99% and the “Cell Survival Rate” value [5, 6] was 100%. For the same substance, the “Cell Survival Rate” value [5, 7] was 93.78% and the “Cell Survival Rate” value [5, 8] was 98.42%.
